BindingDB's records for doi:10.1016/j.ejmech.2020.112893 (China Pharmaceutical University, 2021)

Assay: Antagonist activity at PAR4 in human platelet-rich plasma assessed as inhibition of gamma-thrombin-induced platelet aggregation preincubated for 5 mins followed by gamma-thrombin stimulation

IC50 | SMILES
2.1 nM | COc1cc(OCc2nc(-c3ccc(C(=O)N(C)C)cc3)sc2C)c2cc(-c3cn4nc(OC)sc4n3)oc2c1 [US9688695, 66]
2600 nM | CSc1nn2cc(-c3cc4ccccc4o3)nc2s1 [US9862730, Example 1]
